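The concentration for 50% growth inhibition is given as GI50. TGI: concentration producing complete growth inhibition.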
Key:
Test in all cases: NCI anticancer screen, dose series, 384-well format
[1] = tested on: UO-31 renal
[2] = tested on: A498 renal
[3] = tested on: HL-60(TB) leukemia
[4] = tested on: MDA-MB-231 breast
[5] = tested on: MDA-MB-435 melanoma
[6] = tested on: SK-OV-3 ovarian
[7] = tested on: CAKI-1 renal
[8] = tested on: DU-145 prostate
[9] = tested on: U251 glioblastoma
[10] = tested on: HCT-15 colon
[11] = tested on: M14 melanoma
[12] = tested on: IGROV1 ovarian
[13] = tested on: BT-549 breast
[14] = tested on: NCI-H460 NSCLC
[15] = tested on: SK-MEL-2 melanoma
[16] = tested on: MALME-3M melanoma
[17] = tested on: HCT-116 colon
[18] = tested on: HOP-92 NSCLC
[19] = tested on: OVCAR-4 ovarian
[20] = tested on: TK-10 renal
[21] = tested on: NCI-H226 lung
[22] = tested on: SW-620 colon
[23] = tested on: SNB-19 CNS
[24] = tested on: OVCAR-5 ovarian
[25] = tested on: NCI-H522 lung
[26] = tested on: K-562 leukemia
[27] = tested on: SR leukemia
[28] = tested on: 786-0 renal
[29] = tested on: PC-3 prostate
[30] = tested on: ACHN renal
[31] = tested on: LOX IMVI melanoma
[32] = tested on: NCI-H322M lung
[33] = tested on: SF-268 CNS
[34] = tested on: RPMI-8226 leukemia
[35] = tested on: MDA-MB-468 breast
[36] = tested on: T-47D breast
[37] = tested on: MOLT-4 leukemia
[38] = tested on: CCRF-CEM leukemia
[39] = tested on: RXF 393 renal
[40] = tested on: SN12C renal
[41] = tested on: HCC-2998 colon
[42] = tested on: A549 NSCLC
[43] = tested on: UACC-62 melanoma
[44] = tested on: SF-295 CNS
[45] = tested on: MCF7 breast
[46] = tested on: COLO 205 colon
[47] = tested on: NCI-H23 lung
[48] = tested on: OVCAR-8 ovarian
[49] = tested on: UACC-257 melanoma
[50] = tested on: SK-MEL-28 melanoma
[51] = tested on: SK-MEL-5 melanoma
[52] = tested on: NCI/ADR-RES ovarian
[53] = tested on: HT29 colon
[54] = tested on: KM12 colon
[55] = tested on: HOP-62 NSCLC
[56] = tested on: OVCAR-3 ovarian
[57] = tested on: SF-539 CNS

COc1cccc2c1C(=N)c1c(O)c3c(c(O)c1C2=O)C[C@@](O)(C(C)=O)C[C@@H]3O[C@H]1C[C@H](N)[C@H](O)[C@H](C)O1
GI50 [1]: 707 nM | TGI [1]: 2090 nM | GI50 [2]: 91.9 nM | TGI [2]: 1070 nM | GI50 [3]: < 10 nM | TGI [3]: < 10 nM | GI50 [4]: 181 nM | TGI [4]: 379 nM | GI50 [5]: 166 nM | TGI [5]: 1090 nM | GI50 [6]: 88.4 nM | TGI [6]: 270 nM | GI50 [7]: 90.9 nM | TGI [7]: 668 nM | GI50 [8]: 108 nM | TGI [8]: 399 nM | GI50 [9]: 50.9 nM | TGI [9]: 187 nM | GI50 [10]: 417 nM | TGI [10]: 1560 nM | GI50 [11]: 73.6 nM | TGI [11]: 445 nM | GI50 [12]: 343 nM | TGI [12]: 2010 nM | GI50 [13]: 116 nM | TGI [13]: 335 nM | GI50 [14]: 28.2 nM | TGI [14]: 126 nM | GI50 [15]: 184 nM | TGI [15]: 345 nM | GI50 [16]: 220 nM | TGI [16]: 953 nM | GI50 [17]: 46.7 nM | TGI [17]: 1010 nM | GI50 [18]: 62.9 nM | TGI [18]: 278 nM | GI50 [19]: 387 nM | TGI [19]: 1370 nM | GI50 [20]: 128 nM | TGI [20]: 403 nM | GI50 [21]: 124 nM | TGI [21]: 318 nM | GI50 [22]: 42.8 nM | TGI [22]: 281 nM | GI50 [23]: 63.3 nM | TGI [23]: 376 nM | GI50 [24]: 179 nM | TGI [24]: 583 nM | GI50 [25]: 55.3 nM | TGI [25]: 206 nM | GI50 [26]: 90.4 nM | TGI [26]: 452 nM | GI50 [27]: < 10 nM | TGI [27]: < 10 nM | GI50 [28]: 86.9 nM | TGI [28]: 244 nM | GI50 [29]: 224 nM | TGI [29]: 1330 nM | GI50 [30]: 120 nM | TGI [30]: 567 nM | GI50 [31]: 144 nM | TGI [31]: 338 nM | GI50 [32]: 637 nM | TGI [32]: 2080 nM | GI50 [33]: 59.9 nM | TGI [33]: 262 nM | GI50 [34]: < 10 nM | TGI [34]: 22.3 nM | GI50 [35]: 41.8 nM | TGI [35]: 153 nM | GI50 [36]: 61.1 nM | TGI [36]: 451 nM | GI50 [37]: < 10 nM | TGI [37]: < 10 nM | GI50 [38]: 10.3 nM | TGI [38]: 22.8 nM | GI50 [39]: 41.7 nM | TGI [39]: 147 nM | GI50 [40]: 48.7 nM | TGI [40]: 185 nM | GI50 [41]: 114 nM | TGI [41]: 272 nM | GI50 [42]: 76.1 nM | TGI [42]: 334 nM | GI50 [43]: 71.6 nM | TGI [43]: 466 nM | GI50 [44]: 103 nM | TGI [44]: 345 nM | GI50 [45]: 61.2 nM | TGI [45]: 1360 nM | GI50 [46]: 44.8 nM | TGI [46]: 231 nM | GI50 [47]: 47.9 nM | TGI [47]: 200 nM | GI50 [48]: 42.9 nM | TGI [48]: 745 nM | GI50 [49]: 455 nM | TGI [49]: 1820 nM | GI50 [50]: 131 nM | TGI [50]: 468 nM | GI50 [51]: 97.3 nM | TGI [51]: 437 nM | GI50 [52]: 7530 nM | TGI [52]: 25400 nM | GI50 [53]: 119 nM | TGI [53]: 250 nM | GI50 [54]: 66 nM | TGI [54]: 206 nM | GI50 [55]: 51.3 nM | TGI [55]: 173 nM | GI50 [56]: 102 nM | TGI [56]: 353 nM | GI50 [57]: 36.6 nM | TGI [57]: 119 nM

CN(C)C/C=C/C(=O)Nc1ccc(C(=O)N[C@@]2(C)CCC[C@@H](Nc3ncc(Cl)c(-c4c[nH]c5ccccc45)n3)C2)nc1
GI50 [1]: 14 nM | TGI [1]: 42 nM | GI50 [2]: < 10 nM | TGI [2]: 15.2 nM | GI50 [3]: < 10 nM | TGI [3]: < 10 nM | GI50 [4]: < 10 nM | TGI [4]: 115 nM | GI50 [5]: < 10 nM | TGI [5]: 15.7 nM | GI50 [6]: < 10 nM | TGI [6]: 85.4 nM | GI50 [7]: < 10 nM | TGI [7]: 103 nM | GI50 [9]: < 10 nM | TGI [9]: 30.2 nM | GI50 [10]: < 10 nM | TGI [10]: 64.6 nM | GI50 [11]: < 10 nM | TGI [11]: 13.7 nM | GI50 [12]: < 10 nM | TGI [12]: 127 nM | GI50 [13]: < 10 nM | TGI [13]: < 10 nM | GI50 [14]: < 10 nM | TGI [14]: < 10 nM | GI50 [15]: < 10 nM | TGI [15]: 10.9 nM | GI50 [16]: 12.5 nM | TGI [16]: 26.3 nM | GI50 [18]: < 10 nM | TGI [18]: 136 nM | GI50 [19]: < 10 nM | TGI [19]: 35.9 nM | GI50 [20]: 16.7 nM | TGI [20]: 101 nM | GI50 [21]: < 10 nM | TGI [21]: 34.1 nM | GI50 [22]: < 10 nM | TGI [22]: 22.9 nM | GI50 [23]: < 10 nM | TGI [23]: 1340 nM | GI50 [24]: < 10 nM | TGI [24]: 1310 nM | GI50 [25]: < 10 nM | TGI [25]: < 10 nM | GI50 [26]: < 10 nM | TGI [26]: 43.5 nM | GI50 [27]: < 10 nM | TGI [27]: < 10 nM | GI50 [28]: < 10 nM | TGI [28]: 26.2 nM | GI50 [29]: < 10 nM | TGI [29]: 44.4 nM | GI50 [30]: < 10 nM | TGI [30]: 88.6 nM | GI50 [31]: < 10 nM | TGI [31]: < 10 nM | GI50 [32]: < 10 nM | TGI [32]: 41.3 nM | GI50 [33]: < 10 nM | TGI [33]: 16.2 nM | GI50 [34]: < 10 nM | TGI [34]: < 10 nM | GI50 [35]: < 10 nM | TGI [35]: < 10 nM | GI50 [36]: 15.6 nM | TGI [36]: 144 nM | GI50 [37]: < 10 nM | TGI [37]: < 10 nM | GI50 [38]: < 10 nM | TGI [38]: < 10 nM | GI50 [39]: < 10 nM | TGI [39]: < 10 nM | GI50 [40]: < 10 nM | TGI [40]: 17.2 nM | GI50 [41]: < 10 nM | TGI [41]: 15.8 nM | GI50 [42]: < 10 nM | TGI [42]: 116 nM | GI50 [43]: < 10 nM | TGI [43]: < 10 nM | GI50 [44]: < 10 nM | TGI [44]: 67.5 nM | GI50 [46]: < 10 nM | TGI [46]: < 10 nM | GI50 [47]: < 10 nM | TGI [47]: 14.4 nM | GI50 [48]: < 10 nM | TGI [48]: 27.8 nM | GI50 [49]: < 10 nM | TGI [49]: 15.4 nM | GI50 [50]: < 10 nM | TGI [50]: < 10 nM | GI50 [51]: < 10 nM | TGI [51]: 13.3 nM | GI50 [52]: 202 nM | TGI [52]: 1090 nM | GI50 [53]: < 10 nM | TGI [53]: 72.2 nM | GI50 [54]: < 10 nM | TGI [54]: 10.8 nM | GI50 [55]: < 10 nM | TGI [55]: < 10 nM | GI50 [56]: < 10 nM | TGI [56]: 12.9 nM | GI50 [57]: < 10 nM | TGI [57]: 20.4 nM

Source: PubChem BioAssay (NCI)
